Data taken from patent US9468641B2, “Anti-inflammatory pharmaceutical composition comprising benzopyranyl tetracycles” (SEOUL NATIONAL UNIVERSITY R&DB FOUNDATION, priority 2014, dated 2016).

Tested on: BV-2 cells
Assay: Griess assay of LPS-induced nitrite release in BV-2 cells
Assay type: cell-based
Conditions: BV-2 cells, Griess assay; expressed as percentages of the nitrite level produced upon DMSO treatment (100%)
Procedure: Cells increase the secretion of nitrite when induced to be inflammatory, but decrease the secretion of nitrite in the presence of an anti-inflammatory agent. […] Cells were treated with the compounds in the absence or presence of 100 ng/mL LPS (lipopolysaccharide). After 24 hrs of incubation, the cell culture media were reacted with Griess reagent (0.1% naphthylethylenediamine dihydrochloride and 1% sulfanilamide in 2% phosphoric acid). Absorbance was measured at 550 nm using a microplate reader, and the level of nitrite was estimated by comparison with a sodium nitrite standard curve.

SMILES	NO inhibition (%)
Cc1ccc(-n2c(=O)n3n(c2=O)C2C(=CC3)C3(CCCC3)Oc3cc(O)ccc32)cc1 (centres unmarked) [Chemical Formula 17]	72.1
CC1(C)Oc2cc(O)ccc2C2C1=CCn1c(=O)n(-c3ccccc3Cl)c(=O)n12 (centres unmarked) [Chemical Formula 26]	57.1
O=c1n(-c2ccc(Br)cc2)c(=O)n2n1CC=C1C2c2ccc(O)cc2OC12CCCC2 (centres unmarked) [Chemical Formula 29]	44.0
CC1(C)Oc2cc(O)ccc2C2C1=CCn1c(=O)n(-c3ccc(C(C)(C)C)cc3)c(=O)n12 (centres unmarked) [Chemical Formula 7]	92.1
O=c1n(-c2ccccc2I)c(=O)n2n1CC=C1C2c2ccc(O)cc2OC12CCCC2 (centres unmarked) [Chemical Formula 22]	67.1
Cc1ccc(-n2c(=O)n3n(c2=O)C2C(=CC3)C(C)(C)Oc3cc(O)ccc32)cc1 (centres unmarked) [Chemical Formula 6]	41.8
COc1ccc(-n2c(=O)n3n(c2=O)C2C(=CC3)C(C)(C)Oc3cc(O)ccc32)cc1 (centres unmarked) [Chemical Formula 8]	77.7
CC1(C)Oc2cc(O)ccc2C2C1=CCn1c(=O)n(-c3ccc(Br)cc3)c(=O)n12 (centres unmarked) [Chemical Formula 28]	58.4
O=c1n(Cc2ccccc2)c(=O)n2n1CC=C1C2c2ccc(O)cc2OC12CCCC2 (centres unmarked) [Chemical Formula 16]	53.2
O=c1n(-c2ccccc2)c(=O)n2n1CCC1C2c2ccc(O)cc2OC12CCCC2 (centres unmarked) [Chemical Formula 33]	41.8
COc1cccc(-n2c(=O)n3n(c2=O)C2C(=CC3)C(C)(C)Oc3cc(O)ccc32)c1 (centres unmarked) [Chemical Formula 9]	90.8
O=c1n(-c2ccccc2)c(=O)n2n1CC=C1C2c2ccc(O)cc2OC12CCCC2 (centres unmarked) [Chemical Formula 13]	70.4
CCNC(=O)CCC1(C)Oc2cc(O)ccc2C2C1=CCn1c(=O)n(-c3ccc(C)cc3)c(=O)n12 (centres unmarked) [Chemical Formula 51]	6.2
O=c1n(C2CCCCC2)c(=O)n2n1CC=C1C2c2ccc(O)cc2OC12CCCC2 (centres unmarked) [Chemical Formula 14]	48.8
COc1ccc(-n2c(=O)n3n(c2=O)C2C(=CC3)C3(CCCC3)Oc3cc(O)ccc32)cc1 (centres unmarked) [Chemical Formula 19]	58.3
COc1ccc2c(c1)OC(C)(C)C1=CCn3c(=O)n(-c4ccccc4)c(=O)n3C12 (centres unmarked) [Chemical Formula 36]	3.2
CC1(C)Oc2cc(O)ccc2C2C1C=Cn1c(=O)n(-c3ccccc3)c(=O)n12 (centres unmarked) [Chemical Formula 32]	24.9
CC1(C)Oc2cc(O)ccc2C2C1=CCn1c(=O)n(C3CCCCC3)c(=O)n12 (centres unmarked) [Chemical Formula 3]	38.0
O=c1n(-c2ccccc2Cl)c(=O)n2n1CC=C1C2c2ccc(O)cc2OC12CCCC2 (centres unmarked) [Chemical Formula 27]	44.8

SMILES	NO inhibition (%)
Cn1c(=O)n2n(c1=O)C1C(=CC2)C2(CCCC2)Oc2cc(O)ccc21 (centres unmarked) [Chemical Formula 15]	41.4
CC1(C)Oc2cc(O)ccc2C2C1=CCn1c(=O)n(-c3ccc(F)cc3)c(=O)n12 (centres unmarked) [Chemical Formula 10]	76.4
O=c1n(-c2ccc(F)cc2)c(=O)n2n1CC=C1C2c2ccc(O)cc2OC12CCCC2 (centres unmarked) [Chemical Formula 21]	58.7
Cn1c(=O)n2n(c1=O)C1C(=CC2)C(C)(C)Oc2cc(O)ccc21 (centres unmarked) [Chemical Formula 4]	75.0
CCOC(=O)CCC1(C)Oc2cc(O)ccc2C2C1=CCn1c(=O)n(-c3ccccc3)c(=O)n12 (centres unmarked) [Chemical Formula 39]	44.9
CC1(C)Oc2ccccc2C2C1=CCn1c(=O)n(-c3ccccc3)c(=O)n12 (centres unmarked) [Chemical Formula 35]	1.2
CC1(C)Oc2cc(O)ccc2C2C1=CCn1c(=O)n(-c3ccc(C(=O)c4ccccc4)cc3)c(=O)n12 (centres unmarked) [Chemical Formula 48]	65.5
CC1(C)Oc2cc(O)ccc2C2C1=CCn1c(=O)n(-c3ccc(C(F)(F)F)cc3)c(=O)n12 (centres unmarked) [Chemical Formula 47]	36.0
CC1(C)Oc2cc(O)ccc2C2C1=CCn1c(=O)n(-c3ccc(Cl)cc3)c(=O)n12 (centres unmarked) [Chemical Formula 24]	22.3
CC1(C)Oc2cc(O)ccc2C2C1=CCn1c(=O)n(-c3ccccc3I)c(=O)n12 (centres unmarked) [Chemical Formula 11]	55.2
COC(=O)CCC1(C)Oc2cc(O)ccc2C2C1=CCn1c(=O)n(-c3ccc(C)cc3)c(=O)n12 (centres unmarked) [Chemical Formula 49]	63.2
CC1(C)Oc2cc(O)ccc2C2C1=CCn1c(=O)n(-c3cccc([N+](=O)[O-])c3)c(=O)n12 (centres unmarked) [Chemical Formula 12]	70.4
CC(C)(C)c1ccc(-n2c(=O)n3n(c2=O)C2C(=CC3)C3(CCCC3)Oc3cc(O)ccc32)cc1 (centres unmarked) [Chemical Formula 18]	99.7
O=c1n(-c2ccc(Cl)cc2)c(=O)n2n1CC=C1C2c2ccc(O)cc2OC12CCCC2 (centres unmarked) [Chemical Formula 25]	44.0
COc1cccc(-n2c(=O)n3n(c2=O)C2C(=CC3)C3(CCCC3)Oc3cc(O)ccc32)c1 (centres unmarked) [Chemical Formula 20]	63.0
O=c1n(-c2cccc([N+](=O)[O-])c2)c(=O)n2n1CC=C1C2c2ccc(O)cc2OC12CCCC2 (centres unmarked) [Chemical Formula 23]	81.5
Cn1c(=O)n2ccc3c(n2c1=O)-c1ccc(O)cc1OC3(C)C [Chemical Formula 31]	12.1
COc1cccc(-n2c(=O)n3n(c2=O)C2c4ccc(O)cc4OC(C)(C)C2C=C3)c1 (centres unmarked) [Chemical Formula 34]	4.9
CC1(C)Oc2cc(O)ccc2C2C1=CCn1c(=O)n(Cc3ccccc3)c(=O)n12 (centres unmarked) [Chemical Formula 5]	63.0
